From PMC5085647

How the values were obtained:
U2OS cells = test: LDH release cytotoxicity assay; type: cell-based, human; details: BTZ 10 nM, positive control, n = 3
Method: The release of LDH (Lactate dehydrogenase) was used as a marker for cell toxicity. After treatment with 50 and 100 µM SsCEI 4 for 24 h, cleared supernatants were incubated with reaction buffer for 30 min at room temperature according to the manufacturer instructions (ab65393, LDH-Cytotoxicity Assay Kit II). Absorbance was measured at 490 nm and the cytotoxicity percentage was calculated as: [(Absorbancetest sample − Absorbancelow control)/(Absorbancehigh control − Absorbancelow control) × 100].

porcine liver APEH = target: T1, porcine liver APEH (Sus scrofa, UniProt P19205); test: APEH inhibition in cell-free assay (Ac-Ala-pNA substrate); type: biochemical; details: Figure S1A
T1 sequence (P19205 1-732): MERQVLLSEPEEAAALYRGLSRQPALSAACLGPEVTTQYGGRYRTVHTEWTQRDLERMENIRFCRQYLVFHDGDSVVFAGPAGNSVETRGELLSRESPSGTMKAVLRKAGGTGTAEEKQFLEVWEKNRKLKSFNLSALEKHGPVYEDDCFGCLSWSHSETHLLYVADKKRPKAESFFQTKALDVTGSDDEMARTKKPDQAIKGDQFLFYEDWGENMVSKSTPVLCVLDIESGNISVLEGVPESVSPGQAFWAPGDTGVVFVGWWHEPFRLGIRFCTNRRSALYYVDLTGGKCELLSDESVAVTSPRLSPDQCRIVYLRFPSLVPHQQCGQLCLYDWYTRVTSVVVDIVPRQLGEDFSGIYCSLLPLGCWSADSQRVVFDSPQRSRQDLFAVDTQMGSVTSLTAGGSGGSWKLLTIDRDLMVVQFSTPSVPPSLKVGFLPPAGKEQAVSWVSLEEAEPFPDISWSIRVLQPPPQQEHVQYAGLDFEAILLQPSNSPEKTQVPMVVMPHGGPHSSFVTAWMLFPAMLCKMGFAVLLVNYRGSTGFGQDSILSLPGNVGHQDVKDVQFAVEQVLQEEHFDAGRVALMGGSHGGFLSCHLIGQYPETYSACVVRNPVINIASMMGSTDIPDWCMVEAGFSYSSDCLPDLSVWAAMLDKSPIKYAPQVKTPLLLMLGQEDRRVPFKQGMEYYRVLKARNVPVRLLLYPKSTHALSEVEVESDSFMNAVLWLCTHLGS
Method: APEH activity was measured spectrophotometrically using the chromogenic substrate Ac-Ala-pNA (Bachem, Laufelfingen, Switzerland). […] APEH activity was expressed in IU. […] Mixtures were pre-incubated for 30 min at 37 °C before addition of the substrate, and the enzymatic activities were followed as described above. […] Enzymes incubated without inhibitors were used as controls.

[1] = tested on: Beclin-1 and LC3-II in U2OS cells; test: Autophagy markers Beclin-1 and LC3-I/LC3-II (Western blot); type: cell-based, human; details: Quercetin for 2 h and overnight
Method: For Western blotting analysis, protein aliquots (30 µg/lane) were run on SDS-PAGE (8% or 12.5%) and then electroblotted onto PVDF membranes (ImmobilonTM, Millipore, Milan, Italy). Membranes were next incubated with the specific primary antibodies (1 h at room temperature) and then incubated with the appropriate dilution of secondary antibodies (1 h at room temperature). Immunocomplexes were visualized by enhanced chemiluminescence and autoradiography according to the manufacturer protocol (Santa Cruz Biotechnology) and quantified by densitometric analysis with Image J software (NIH, Bethesda, […], USA), using the β-actin and Vinculin levels as loading control for normalization.
Figure S3. […] (A, left panel)
U2OS cells were treated with DMSO (C) or SsCEI 4 (50 and 100 µM) for 72 h. Then, cell lysates were […]
harvested and subjected to immunoblotting for Beclin-1; (A, right panel) Results of densitometry of […]
Beclin-1 bands are expressed as the mean of relationships between densitometries of Beclin-1 and […]
β-actin bands, used as loading control; (B) U2OS cells were treated with DMSO (C) or SsCEI 4 (50 […]
and 100 µM) for 72 h, and cell lysates were used to analyze LC3-II conversion by immunoblotting […]
using the specific antibody against LC3, which is able to recognize both the upper LC3-I band and […]
the lower LC3-II. […]

| SMILES | Cytotoxicity (LDH release in culture medium) (U2OS cells) | Effect toward APEH activity (porcine liver APEH) | Beclin-1 and LC3-II levels (autophagy), positive control [1] |
| --- | --- | --- | --- |
| CC(C)C[C@H](NC(=O)[C@H](Cc1ccccc1)NC(=O)c1cnccn1)B(O)O [Bortezomib] | exceeding 200% | completely ineffective | – |
| O=c1c(O)c(-c2ccc(O)c(O)c2)oc2cc(O)cc(O)c12 [Quercetin] | – | – | strongly induced |
